According to the supplement of paper PMC10307832:

Columns and labels:
Assay in all cases: relative viability (nuclei count vs DMSO), 5 days (fraction); higher = more cells survive
[1] = compound: C#Cc1cccc(Nc2ncnc3cc(OC)c(OCCCCCCC(=O)NO)cc23)c1 [CUDC-101] + CS(=O)(=O)CCNCc1ccc(-c2ccc3ncnc(Nc4ccc(OCc5cccc(F)c5)c(Cl)c4)c3c2)o1 [Lapatinib] (partner 2 µM)
Procedure, shortened: (§1)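 Relative viability divides the nuclei count in treated wells by that in vehicle wells. Lung cancer cell lines were seeded in 1536-well plates, dosed by pin tool the next day, and fixed and stained after 5 days in one step with final 0.05% Triton X-100, 1% formaldehyde and 1 ug/ml Hoechst. Dosing was a single drug or a fixed anchor-drug dose plus five library-drug doses (not always all listed) in √10 steps, and values are medians of duplicate plates imaged at 4×.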

[2] = compound: C1=CC=C2C(=C1)N=C(S2)C(C#N)C3=NC(=NC=C3)NCCC4=CN=CC=C4 + CC(C)C[C@H](NC(=O)[C@H](Cc1ccccc1)NC(=O)c1cnccn1)B(O)O [Bortezomib] (partner 0.002 µM)
Procedure, shortened: as §1

[3] = compound: COc1cc(N2CCC(N3CCN(C)CC3)CC2)ccc1Nc1ncc(Cl)c(Nc2ccccc2S(=O)(=O)C(C)C)n1 [NVP-TAE684] + COc1cccc2cc(-c3nc([C@H]4CC[C@H](C(=O)O)CC4)n4ncnc(N)c34)[nH]c12 [OSI-027] (partner 0.5 µM)
Procedure, shortened: as §1

[4] = compound: COc1cc(N2CCC(N3CCN(C)CC3)CC2)ccc1Nc1ncc(Cl)c(Nc2ccccc2S(=O)(=O)C(C)C)n1 [NVP-TAE684] + CC(=O)c1c(C)c2cnc(Nc3ccc(N4CCNCC4)cn3)nc2n(C2CCCC2)c1=O [Palbociclib] (partner 0.5 µM)
Procedure, shortened: as §1

| Cell Line | relative viability ([1]; first compound 0.01 µM) | relative viability ([1]; first compound 0.03162 µM) | relative viability ([1]; first compound 0.1 µM) | relative viability ([1]; first compound 0.3162 µM) | relative viability ([1]; first compound 1 µM) | relative viability ([2]; first compound 0.01581 µM) | relative viability ([2]; first compound 0.05 µM) | relative viability ([2]; first compound 0.1581 µM) | relative viability ([2]; first compound 0.5 µM) | relative viability ([3]; first compound 0.2 µM) | relative viability ([3]; first compound 0.6325 µM) | relative viability ([3]; first compound 2 µM) | relative viability ([4]; first compound 0.2 µM) | relative viability ([4]; first compound 0.6325 µM) | relative viability ([4]; first compound 2 µM) | relative viability ([2]; first compound 0.005 µM) |
| --- | --- | --- | --- | --- | --- | --- | --- | --- | --- | --- | --- | --- | --- | --- | --- | --- |
| NCI-H23 | 1.08 | 0.963 | 1.19 | 0.918 | 0.559 | 0.917 | 1.01 | 1.37 | 0.92 | 0.666 | 0.544 | 0.236 | 0.439 | 0.5 | 0.241 | – |
| NCI-H322M | 0.618 | 0.648 | 0.521 | 0.575 | 0.603 | 1.31 | 1.21 | 1.32 | 1.23 | 0.426 | 0.469 | 0.336 | 0.425 | 0.43 | 0.375 | 0.947 |
| NCI-H460 | 1.04 | 0.994 | 0.873 | 0.919 | 0.339 | 1.09 | 1.08 | 1.42 | 0.609 | 0.811 | 0.607 | 0.162 | 0.183 | 0.168 | 0.098 | – |
| NCI-H520 | 0.94 | – | 0.879 | 0.76 | 0.323 | 0.526 | 0.577 | 1.27 | 0.406 | 0.281 | 0.287 | 0.199 | 0.227 | 0.267 | 0.152 | 0.348 |
| NCI-H647 | 1.25 | 1.1 | 1.02 | 0.863 | 0.271 | 1.04 | 0.869 | 1.05 | 0.989 | 0.692 | 0.58 | 0.417 | 0.352 | 0.337 | 0.223 | – |
| NCI-H650 | 0.947 | 1.1 | 0.899 | 0.582 | 0.405 | 0.528 | 0.748 | 1.22 | 0.778 | 0.441 | 0.458 | 0.332 | 0.313 | 0.319 | 0.318 | 0.482 |
| NCI-H661 | 0.603 | 0.449 | 0.525 | 0.594 | 0.506 | 0.824 | 0.662 | 0.695 | 0.794 | 0.717 | 0.821 | 0.585 | 0.423 | 0.378 | 0.424 | 0.708 |
| NCI-H727 | 0.825 | 0.531 | 0.844 | 0.801 | 0.678 | 0.76 | 0.819 | 1.13 | 0.624 | 0.68 | 0.411 | 0.372 | 0.638 | 0.623 | 0.516 | 0.526 |
| NCI-H838 | 0.934 | 1 | 1.03 | 1.11 | 0.552 | 0.834 | 0.841 | 1.05 | 0.752 | 0.389 | 0.324 | 0.175 | 0.199 | 0.197 | 0.141 | 0.641 |
| NCI-H1355 | 1.04 | 0.825 | 1.05 | 0.895 | 0.679 | 1.1 | 1.22 | 1.27 | 1.1 | 0.423 | 0.325 | 0.273 | 0.366 | 0.368 | 0.269 | 1.1 |
| NCI-H1437 | 0.884 | 0.792 | 0.773 | 0.796 | 0.355 | 0.569 | 0.848 | 0.652 | 0.429 | 0.79 | – | 0.203 | 0.321 | 0.291 | 0.231 | 0.475 |
| NCI-H1650 | 0.833 | 0.72 | 0.963 | 0.772 | 0.48 | 0.204 | 0.19 | 0.21 | 0.206 | 0.374 | 0.437 | 0.217 | 0.297 | 0.299 | 0.211 | 0.26 |
| NCI-H1651 | 0.869 | 0.813 | 0.884 | 0.771 | 0.325 | 0.924 | 0.935 | 1.05 | 0.957 | 0.692 | 0.79 | 0.295 | 0.506 | 0.572 | 0.468 | 0.636 |
| NCI-H1666 | 0.64 | 0.692 | 0.583 | 0.664 | 0.38 | 0.867 | 0.673 | 0.899 | 0.822 | 0.901 | 0.767 | 0.641 | 0.642 | 0.713 | 0.617 | 1.12 |
| NCI-H1734 | 1.1 | 0.988 | 1.07 | 1.09 | 0.841 | 0.895 | 0.912 | 1.07 | 0.831 | 0.679 | 0.518 | 0.387 | 0.375 | 0.324 | 0.316 | 0.789 |
| NCI-H1755 | 1.09 | 1.04 | 1.02 | 1.1 | 0.798 | 1.07 | 0.996 | 1.13 | 0.884 | 0.636 | 0.672 | 0.453 | 0.441 | 0.472 | 0.401 | 0.943 |
| NCI-H1792 | 0.91 | 0.883 | 0.877 | 0.913 | 0.825 | 1.04 | 0.941 | 1.11 | 0.534 | 0.779 | 0.731 | 0.818 | 0.606 | 0.615 | 0.648 | – |
| NCI-H1915 | 1.02 | 1.04 | 0.977 | 0.911 | 0.837 | 1.05 | 0.964 | 1.19 | 0.647 | 0.678 | 0.668 | 0.611 | 0.558 | 0.525 | 0.491 | 0.552 |
| NCI-H1975 | 1.02 | 0.913 | 0.844 | 0.82 | 0.411 | 0.41 | 0.367 | 0.414 | 0.307 | 0.732 | 0.594 | 0.341 | 0.591 | 0.589 | 0.37 | 0.377 |
| NCI-H1993 | 0.758 | 0.899 | 1.03 | 0.995 | 0.635 | 1.07 | 0.886 | 1.1 | 1.06 | 0.494 | 0.466 | 0.593 | 0.437 | 0.614 | 0.475 | 1.02 |
